In US12545685B2 (Daiichi Sankyo Company, Limited, priority 2011, dated 2026):

These compounds were tested against T1, Mdm2/p53 binding (GST-Mdm2 / His-p53) (Homo sapiens, UniProt Q00987, L33E) (assay: Mdm2/p53 binding assay (HTRF, His-p53 and GST-Mdm2)). Details: His-p53 (aa 1-132) and GST-Mdm2 (aa 25-108, L33E) 6.25 nM each; 25°C, 1 hour; values given as ranges.
T1 construct: Mdm2 partial protein having Mdm2 amino acids at positions 25 to 108
Outline: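 His-p53 (aa 1–132) and GST-Mdm2 (aa 25–108, L33E) were prepared at 6.25 nM each in the protein dilution (20 mM HEPES pH 7.4, 150 mM NaCl, 0.1% BSA). Compound in 10% DMSO buffer and XL665 anti-His/Eu anti-GST antibodies (KF buffer) were added, with 1 h at 25 °C. The 665/620 nm TR-FRET ratio gave T/C and a sigmoid-fitted IC50.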

T1 sequence (Q00987 25-108 L33E): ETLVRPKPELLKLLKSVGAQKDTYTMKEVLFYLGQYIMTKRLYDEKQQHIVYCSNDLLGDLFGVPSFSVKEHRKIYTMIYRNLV

SMILES	IC50
COC[C@]1(O)CC[C@@H](NC(=O)[C@@H]2NC3(CCC(C)(C)CC3)[C@@]3(C(=O)Nc4nc(Cl)ccc43)[C@H]2c2ccnc(Cl)c2F)CC1 [Example 80, (3′R, 4′S,5′R)-6″-chloro-4′-(2-chloro-3-fluoropyridin-4-yl)-N-[cis-4-hydroxy-4-(methoxymethyl)cyclohexyl]-4,4-dimethyl-2″-oxo-1″,2″-dihydrodispiro[cyclohexane-1,2′-pyrrolidine-3′,3″-pyrrol[2,3-b]pyridine]-5′-carboxamide]	50 to 100 nM
CNC(=O)c1cc(Cl)cc([C@H]2[C@H](C(=O)N[C@@H]3CC[C@@H](CO)OC3)NC3(CCC(C)(C)CC3)[C@@]23C(=O)Nc2cc(Cl)ccc23)c1 [Example 27, 2, 5˜Anhydro-2-[({(3′R, 4′R, 5′R)-6″-chloro-4′-[3-chloro-5-(methylcarbamoyl)phenyl]-4,4-dimethyl-2″-oxo-1″,2″-dihydrodispiro[cyclohexane-1,2′-pyrrolidine-3′,3″-indole]-5′-yl}carbonyl)amino]-2,3,4-trideoxy-D-erythro-hexitol]	1 to 50 nM
CC(O)[C@@H]1CC[C@@H](NC(=O)[C@@H]2NC3(CCC(C)(C)CC3)[C@@]3(C(=O)Nc4nc(Cl)ccc43)[C@H]2c2ccnc(Cl)c2F)CO1 (single isomer, unassigned) [Example 75]	1 to 50 nM
Cn1cncc1CNC(=O)[C@@H]1NC2(CCC(C)(C)CC2)[C@@]2(C(=O)Nc3cc(Cl)ccc32)[C@H]1c1ccnc(Cl)c1F [Example 171, (3′R, 4′S, S′R)-6″-chloro-4′-(2-chloro-3-fluoropyridin-4-yl)-4,4-dimethyl-N-[(1-methyl-1H-imidazol-5-yl)methyl]-2″-oxo-1″,2″-dihydrodispiro[cyclohexane-1,2″-pyrrolidine-3′,3″-indole]-5′-carboxamide]	50 to 100 nM
CC1(C)CCC2(CC1)N[C@@H](C(=O)N[C@@H]1CC[C@@H](C(C)(C)O)OC1)[C@H](c1ccnc(Cl)c1)[C@]21C(=O)Nc2cc(Cl)ccc21 [Example 10, (3′R, 4′R, 5′R)-6″-chloro-4′-(2-chloropyridin-4-yl)-N-[(3R,6S)-6-(1-hydroxy-1-methylethyl)tetrahydro-2H-pyran-3-yl]-4,4-dimethyl-2″-oxo-1″,2″-dihydrodispiro[cyclohexane-1,2′-pyrrolidine-3′,3″-indole]-5′-carboxamide]	50 to 100 nM
CC1(C)CCC2(CC1)N[C@@H](C(=O)NC1(C)CC[C@@H](C(N)=O)OC1)[C@H](c1ccnc(Cl)c1F)[C@]21C(=O)Nc2cc(Cl)ccc21 (stereo partly drawn) [Example 189, (3′R, 4′S,5′R)—N-[(6S)-6-carbamoyl-3-methyltetrahydro-2H-pyran-3-yl]-6″-chloro-4′-(2-chloro-3-fluoropyridin-4-yl)-4,4-dimethyl-2″-oxo-1′1,2″-dihydrodispiro[cyclohexane-1,2′-pyrrolidine-3′,3″-indole]-5′-Carboxamide]	1 to 50 nM
CC1(C)CCC2(CC1)N[C@@H](C(=O)N[C@H]1CC[C@H](c3noc(=O)[nH]3)CC1)[C@H](c1ccnc(Cl)c1F)[C@]21C(=O)Nc2cc(Cl)ccc21 [Example 41, (3′R, 4′S,5′R)-6″-chloro-4′-(2-chloro-3-fluoropyridin-4-yl)-4,4-dimethyl-2″-oxo-N-[trans-4-(5-oxo-4,5-dihydro-1,2,4-oxadiazol-3-yl)cyclohexyl]-1″,2″-dihydrodispiro[cyclohexane-1,2′-pyrrolidine-3′,3″-indole]-5′-carboxamide]	1 to 50 nM
CC1(C)CCC2(CC1)N[C@@H](C(=O)N[C@@H]1CCC(C)(C(N)=O)OC1)[C@H](c1ccnc(Cl)c1F)[C@]21C(=O)Nc2cc(Cl)ccc21 (stereo partly drawn) [Example 187, (3′R, 4′S,5′R)—N-[(3R)-6-carbamoyl-6-methyltetrahydro-2H-pyran-3-yl]-6″-chloro-4′-(2-chloro-3-fluoropyridin-4-yl)-4,4-dimethyl-2″-oxo-1″,2″-dihydrodispiro[cyclohexane-1,2′-pyrrolidine-3′,3″-indole]-5′-carboxamide]	1 to 50 nM
CO[C@@H]1C[C@@H](NC(=O)[C@@H]2NC3(CCC(C)(C)CC3)[C@@]3(C(=O)Nc4nc(Cl)ccc43)[C@H]2c2cccc(Cl)c2F)CO[C@@H]1CO [Example 68, (3′R, 4′S,5′R)-6″-chloro-4′-(3-chloro-2-fluorophenyl)-N-[(3R,5R,6R)-6-(hydroxymethyl)-5-methoxytetrahydro-2H-pyran-3-yl]-4,4-dimethyl-2″-oxo-1″,2″-dihydrodispiro[cyclohexane-1,2′-pyrrolidine-3′,3″-pyrrolo[2,3-b]pyridine]-5′-carboxamide]	1 to 50 nM
CC1(C)CCC2(CC1)N[C@@H](C(=O)N[C@@H]1CC[C@@H](c3n[nH]c(=O)o3)OC1)[C@H](c1cccc(Cl)c1F)[C@]21C(=O)Nc2nc(Cl)ccc21 [Example 55, (3′R, 4′S,5′R)-6″-chloro-4′-(3-chloro-2-fluorophenyl)-4,4-dimethyl-2″-oxo-N-[(3R,6S)-6-(5-oxo-4,5-dihydro-1,3,4-oxadiazol-2-yl)tetrahydro-2H-pyran-3-yl]-1″,2″-dihydrodispiro[cyclohexane-1,2′-pyrrolidine-3′,3″-pyrrolo[2,3-b]pyridine]-5′-carboxamide]	1 to 50 nM
CC1(C)CCC2(CC1)N[C@@H](C(=O)N[C@@H]1CC[C@@H](CS(C)(=O)=O)OC1)[C@H](c1ccnc(Cl)c1F)[C@]21C(=O)Nc2cc(Cl)ccc21 [Example 98, (3′R, 4′S,5′R)-6″-chloro-4′-(2-chloro-3-fluoropyridin-4-yl)-4,4-dimethyl-N-{(3R,6S)-6-[(methylsulfonyl)methyl]tetrahydro-2H-pyran-3-yl}-2″-oxo-1″,2″-dihydrodispiro[cyclohexane-1,2′-pyrrolidine-3′,3″-indole]-5′-carboxamide]	50 to 100 nM

More lines, now with the values ahead:

IC50	SMILES
1 to 50 nM	CC1(C)CCC2(CC1)N[C@@H](C(=O)N[C@@H]1CC[C@@H](C(C)(C)O)OC1)[C@H](c1cccc(Cl)c1F)[C@]21C(=O)Nc2cc(Cl)ccc21 [Example 46, (3′R, 4′S,5′R)-6″-chloro-4′-(3-chloro-2-fluorophenyl)-N-[(3R,6S)-6-(1-hydroxy-1-methylethyl)tetrahydro-2H-pyran-3-yl]-4,4-dimethyl-2′-oxo-1″; 2″-dihydrodispiro[cyclohexane-1,2′-pyrrolidine-3′,3″-indole]-5′-carboxamide]
50 to 100 nM	CC1(C)CC2(C1)N[C@@H](C(=O)N[C@@H]1CC[C@@H](CO)OC1)[C@H](c1cccc(Cl)c1F)[C@]21C(=O)Nc2nc(Cl)ccc21 [Example 79, (3′R, 4′S,5′R)-6″-chloro-4′-(3-chloro-2-fluorophenyl)-N-[(3R,6S)-6-(hydroxymethyl)tetrahydro-2H-pyran-3-yl]-3,3-dimethyl-2″-oxo-1″,2″-dihydrodispiro[cyclobutane-1,2′-pyrrolidine-3′,3″-pyrrolo[2,3-b]pyridine]-5′-carboxamide]
1 to 50 nM	CN(C)C(=O)[C@@H]1CC[C@@H](NC(=O)[C@@H]2NC3(CC(CF)(CF)C3)[C@@]3(C(=O)Nc4cc(Cl)ccc43)[C@H]2c2cccc(Cl)c2F)CO1 [Example 124, (3′R, 4′S,5′R)-6″-chloro-4′-(3-chloro-2-fluorophenyl)-N-[(3R,6S)-6-(dimethylcarbamoyl)tetrahydro-2H-pyran-3-yl]-3,3-bis(fluoromethyl)-2″-oxo-1″,2″-dihydrodispiro[cyclobutane-1,2′-pyrrolidine-3′,3″-indole]-5′-carboxamide]
50 to 100 nM	COC[C@@H]1CC[C@@H](NC(=O)[C@@H]2NC3(CCC(C)(C)CC3)[C@@]3(C(=O)Nc4cc(Cl)ccc43)[C@H]2c2ccnc(Cl)c2F)CO1 [Example 133, (3′R, 4′S,5′R)-6″-chloro-4′-(2-chloro-3-fluoropyridin-4-yl)-N-[(3R,6S)-6-(methoxymethyl)tetrahydro-2H-pyran-3-yl]-4,4-dimethyl-2″-oxo-1″,2″-dihydrodispiro[cyclohexane-1,2′-pyrrolidine-3′,3″-indole]-5′-carboxamide]
50 to 100 nM	O=C(N[C@H]1CC[C@H](O)CC1)[C@@H]1NC2(CC(CF)(CF)C2)[C@@]2(C(=O)Nc3cc(Cl)ccc32)[C@H]1c1cccc(Cl)c1F (relative stereo) [Example 121, (3′R, 4′S,5′R)-6″-chloro-4′-(3-chloro-2-fluorophenyl)-3,3-bis(fluoromethyl)-N-(trans-4-hydroxycyclohexyl)-2″-oxo-1″,2″-dihydrodispiro[cyclobutane-1,2′-pyrrolidine-3′,3″-indole]-5′-carboxamide]
1 to 50 nM	CNC(=O)c1cc(Cl)cc([C@H]2[C@H](C(=O)N[C@H]3CC[C@H](O)CC3)NC3(CCC(C)(C)CC3)[C@@]23C(=O)Nc2cc(Cl)ccc23)c1 (relative stereo) [Example 21, (3′R, 4′R, 5′R)-6″-chloro-4′-[3-chloro-5-(methylcarbamoyl)phenyl]-N-(trans-4-hydroxycyclohexyl)-4,4-dimethyl-2″-oxo-1″,2″-dihydrodispiro[cyclohexane-1,2′-pyrrolidine-3′,3″-indole]-5′-carboxamide]
1 to 50 nM	CC1(C)CCC2(CC1)N[C@@H](C(=O)N[C@H]1CC[C@H](c3noc(=O)[nH]3)CC1)[C@H](c1cccc(Cl)c1F)[C@]21C(=O)Nc2cc(Cl)ccc21 [Example 48, (3′S,4′S,5′R)-6′-chloro-4′-(3-chloro-2-fluorophenyl)-4,4-dimethyl-2″-oxo-N-[trans-4-(5-oxo-4,5-dihydro-1,2,4-oxadiazol-3-yl)cyclohexyl]-1″,2″-dihydrodispiro[cyclohexane-1,2′-pyrrolidine-3′,3″-indole]-5′-carboxamide]
50 to 100 nM	O=C(N[C@@H]1CC[C@@H](CO)OC1)[C@@H]1NC2(CC(CF)(CF)C2)[C@@]2(C(=O)Nc3nc(Cl)ccc32)[C@H]1c1cccc(Cl)c1F [Example 84, (3′R, 4′S,5′R)-6″-chloro-4′-(3-chloro-2-fluorophenyl)-3,3-bis(fluoromethyl)-N-[(3R,6S)-6-(hydroxymethyl)tetrahydro-2H-pyran-3-yl]-2″-oxo-1″,2″-dihydrodispiro[cyclobutane-1,2′-pyrrolidine-3′,3″-pyrrolo[2,3-b]pyridine]-5′-carboxamide]
